From US20230338564A1, “NEODEGRADER CONJUGATES” (Orum Therapeutics, Inc., priority 2020, published 2023)

Experiments:
Test in all cases: In vitro antiproliferation assay, General Procedure 2 (CCK-8)
Assay type in all cases: cell-based
SNU182 cell line = details: Homo sapiens, SNU-182; Liver
Summary of the method: (§1)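 CCK-8 readout of proliferation after compound exposure (top 100 nM, 4-fold dilution series). Adherent cells: plated 18 h prior, treated 5 d. Suspension cells: seeded same day, treated 3 d. Technical triplicates, three biological replicates.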

MOLM13 cell line = details: Homo sapiens, MOLM-13; AML; read-out: IC50, MOLM13
Summary of the method: as §1

LOVO cell line = details: Homo sapiens, Colon
Summary of the method: as §1

SKM-1 cell line = details: Homo sapiens, SKM-1; Acute myeloid leukemia; read-out: IC50, SKM-1
Summary of the method: as §1

AGS cell line = details: Homo sapiens, Gastric
Summary of the method: as §1

OCI-AML2 cell line = details: Homo sapiens, OCI-AML2; Acute myeloid leukemia; read-out: IC50, OCI-AML2
Summary of the method: as §1

SU-DHL-8 cell line = details: Homo sapiens, NHL
Summary of the method: as §1

[1] = tested on: HS-SY-II synovial sarcoma cell line
Summary of the method: as §1

CMK cell line = details: Homo sapiens, Acute megakaryocytic leukemia
Summary of the method: as §1

RH41 cell line = details: Homo sapiens, Rhabdomyosarcoma
Summary of the method: as §1

THLE2 cell line = details: THLE-2; Human liver normal
Summary of the method: as §1

Daudi cell line = details: Homo sapiens, NHL
Summary of the method: as §1

OCI-M2 cell line = details: Acute myelocytic leukemia
Summary of the method: as §1

IC50 (SNU182 cell line): 12.7 nM
IC50 (MOLM13 cell line): 24.8 nM
IC50 (LOVO cell line): > 1000 nM
IC50 (SKM-1 cell line): 3.21 nM
IC50 (AGS cell line): > 1000 nM
IC50 (OCI-AML2 cell line): 95.9 nM
IC50 (SU-DHL-8 cell line): 102 nM
IC50 [1]: 11.7 nM
IC50 (Daudi cell line): 47.4 nM
IC50 (OCI-M2 cell line): 650 nM
SMILES: CNCCOCCc1ccc(NC(=O)NCc2ccc3c(c2)CN(C2CCC(=O)NC2=O)C3=O)cc1Cl (stereo not shown) [Compound P1, 1-(3-chloro-4-[2-[2-(methylamino)ethoxy]ethyl]phenyl)-3-[[2-(2,6-dioxopiperidin-3-yl)-1-oxo-3H-isoindol-5-yl]methyl]urea]
IC50 (CMK cell line): 408 nM
IC50 (RH41 cell line): 1210 nM
IC50 (THLE2 cell line): > 1000 nM
